Data published in US12295983B2, “Use of extracts of the leaves of lemon verbena (Aloysia citriodora) for increasing the neuronal, cerebral availability of neurotransmitters selected from the group of serotonin, dopamine, noradrenaline” (Finzelberg GMBH & Co. KG, priority 2018, dated 2025).
pIC50: −log10 of the molar value. Like-named read-outs stand apart in the source and are kept apart here.

What was measured:
[1] = molecular target: T1, dopamine reuptake in synaptosomes from rat cortex (Rattus norvegicus, UniProt P23977); details: read-out: Dopamine (IC50 μg/ml), literature value, cited from earlier work
T1 construct: Freshly isolated synaptosomes from rats were used; from tissue; host or cells: synaptosomes from rat cortex

[2] = molecular target: T2, serotonin reuptake in synaptosomes from rat cortex (Rattus norvegicus, UniProt P31652); details: read-out: Serotonin (IC50 μg/ml); literature value, Markowitz et al.; cited from earlier work
T2 construct: Freshly isolated synaptosomes from rats were used; from tissue; host or cells: synaptosomes from rat cortex

[3] = system: noradrenaline reuptake in synaptosomes from rat cortex; details: literature value, cited from earlier work
[4] = molecular target: T2, serotonin reuptake in synaptosomes from rat cortex; assay: Serotonin reuptake test with [3H]-serotonin in freshly isolated synaptosomes; assay type: biochemical; details: ratio of reuptake IC50 values
Method: Freshly isolated synaptosomes from rats were used according to Perovic and Müller [Perovic S, Müller W E, 1995, Arzneimittelforschung 45; 1145-1148] for a dopamine reuptake test, and a serotonin reuptake test, and a noradrenaline reuptake test. [^3H]-dopamine, [^3H]-noradrenaline and [^3H]-serotonin, respectively, served as the ligands. The test substance was incubated with the synaptosomes and the corresponding ligand for 15 min at 37° C. in the dark. The samples were then transferred to GF/C filter plates, and washed cold twice, and dried, before the filter-bound radioactivity was measured with a microtitration plate counter (Microbeta, Wallac, Finland). For determining the 100% reuptake, the experiment was performed without test substances. The measured value for incubation with corresponding inhibitors (GBR12909 in the dopamine reuptake inhibition, protriptyline in the noradrenaline reuptake inhibition, and imipramine hydrochloride for the serotonin reuptake inhibition) was considered as a 0% uptake.

[5] = system: transgenic C. elegans strain CL2355 expressing human β-amyloid pan-neuronally; assay: β-Amyloid-induced neuronal dysfunction, chemotaxis towards benzaldehyde; assay type: in vivo, Caenorhabditis elegans
Method: β-Amyloid species can damage neurons and trigger a dysfunction of neuronally controlled behavior. The transgenic C. elegans strain CL2355 expresses human β-amyloid on a pan-neuronal level. This leads to cognitive disorders, such as reduced chemotactic movement towards an attractant (benzaldehyde). In the experiments, the chemotaxis index, i.e., the proportion of worms moved towards the attractant on the agar plate, was measured. […] The experiment was performed in accordance with […] et al.

[6] = system: transgenic C. elegans strain CL4176 expressing human β-amyloid (Aβ 1-42); assay: β-Amyloid-induced toxicity (paralysis, PT50) in C. elegans model; assay type: in vivo, Caenorhabditis elegans; details: 200 μg/ml; negative control 31.0 ± 0.4
Method: In order to test the effect on β-amyloid toxicity, the transgenic C. elegans strain CL4176, which can express human β-amyloid (Aβ 1-42), was employed. Aβ expression can be induced by increasing the temperature. Age-synchronized and treated worms were incubated at 16° C. for 48 hours. After increasing the temperature to 25° C. and incubation for 24 hours, the worms began to get paralyzed because of the toxicity of the Aβ oligomer. The paralysis was evaluated every 2 hours (experimental set-up according to Heiner et al.: Sideritis scardica extracts inhibit the aggregation of α-synuclein and β-amyloid peptides in Caenorhabditis elegans used as a model for neurodegenerative diseases. Planta Medica 81—PW_127, 2015). Substances that counteract this toxic effect of β-amyloid lead to a slower or later paralysis of the animals. Such substances delay the neurodegeneration, inter alia, in Alzheimer's dementia. The median (PT50), which is the time when exactly 50% of the nematodes were paralyzed, was used as a comparative value.

[7] = system: dopaminergic neurons of transgenic C. elegans strain BZ555; assay: Protection of dopaminergic neurons from 6-OHDA-induced degeneration (GFP fluorescence); assay type: in vivo, Caenorhabditis elegans; details: worms + 50 mM 6-OHDA + 100 μg/ml; negative control 34.3 ± 4.3
Method: 6-Hydroxydopamine (6-OHDA) damages dopaminergic neurons, which is used in different animal models. The transgenic C. elegans strain BZ555 expresses green fluorescent protein in dopaminergic neurons. Thus, the 6-OHDA-induced neurodegeneration or the reduction thereof can be quantified by fluorescence microscopy. The worms were exposed to 50 mM 6-OHDA, which reduces the fluorescence intensity of the neurons because of the degeneration thereof. Bupropione, a selective noradrenaline and dopamine reuptake inhibitor (NDRI), serves as the positive control. Through the inhibition of the noradrenaline (NA) or dopamine (DA) transporters (reuptake), bupropion prevents the neurotoxin 6-OHDA from getting into and damaging the neurons.

T2 sequence (P31652 whole entry): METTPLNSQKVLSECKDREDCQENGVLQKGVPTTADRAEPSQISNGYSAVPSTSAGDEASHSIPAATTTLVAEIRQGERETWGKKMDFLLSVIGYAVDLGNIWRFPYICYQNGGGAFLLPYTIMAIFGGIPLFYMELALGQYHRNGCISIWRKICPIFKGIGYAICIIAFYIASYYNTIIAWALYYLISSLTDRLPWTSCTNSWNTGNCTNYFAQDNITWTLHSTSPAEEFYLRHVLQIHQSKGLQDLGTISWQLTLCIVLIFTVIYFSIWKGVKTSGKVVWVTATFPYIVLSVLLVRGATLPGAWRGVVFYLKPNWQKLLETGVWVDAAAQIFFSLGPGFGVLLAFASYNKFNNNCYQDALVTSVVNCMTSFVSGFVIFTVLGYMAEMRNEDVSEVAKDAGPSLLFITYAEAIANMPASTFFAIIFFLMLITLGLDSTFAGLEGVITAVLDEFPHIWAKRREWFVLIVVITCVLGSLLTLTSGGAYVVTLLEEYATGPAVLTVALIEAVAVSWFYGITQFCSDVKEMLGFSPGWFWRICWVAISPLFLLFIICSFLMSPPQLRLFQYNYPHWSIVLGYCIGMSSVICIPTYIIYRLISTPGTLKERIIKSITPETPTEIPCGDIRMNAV
T1 sequence (P23977 whole entry): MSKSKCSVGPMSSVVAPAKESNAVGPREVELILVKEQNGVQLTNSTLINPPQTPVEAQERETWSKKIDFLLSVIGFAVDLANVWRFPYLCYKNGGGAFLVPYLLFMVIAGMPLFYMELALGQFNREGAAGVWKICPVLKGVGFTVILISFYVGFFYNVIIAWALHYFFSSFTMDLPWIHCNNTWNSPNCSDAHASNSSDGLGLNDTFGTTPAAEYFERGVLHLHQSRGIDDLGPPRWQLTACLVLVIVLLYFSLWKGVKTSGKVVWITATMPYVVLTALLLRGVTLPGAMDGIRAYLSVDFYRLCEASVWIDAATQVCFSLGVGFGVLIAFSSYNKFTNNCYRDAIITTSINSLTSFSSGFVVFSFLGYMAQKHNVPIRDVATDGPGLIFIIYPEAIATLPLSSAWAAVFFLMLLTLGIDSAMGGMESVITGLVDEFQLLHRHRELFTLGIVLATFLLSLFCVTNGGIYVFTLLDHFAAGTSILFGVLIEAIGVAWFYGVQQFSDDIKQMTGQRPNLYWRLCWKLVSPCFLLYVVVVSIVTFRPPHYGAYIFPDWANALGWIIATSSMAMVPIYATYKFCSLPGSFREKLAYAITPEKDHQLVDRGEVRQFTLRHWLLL

COC(=O)C(c1ccccc1)C1CCCCN1 (stereo not shown) [Methylphenidate]
pIC50 ([1]; Markowitz et al.): 5.95
pIC50 ([1]; Sommer et al.): 6.31
pIC50 [2]: 4.73
Noradrenaline (IC50 μg/ml) ([3]; Markowitz et al.): 0.052 µg/mL
Noradrenaline (IC50 μg/ml) ([3]; Sommer et al.): 0.050 µg/mL
activity ratio of serotonin to noradrenaline (factor) [4]: 86

C[C@@H]1O[C@@H](O[C@@H]2[C@@H](O)[C@H](OCCc3ccc(O)c(O)c3)O[C@H](CO)[C@H]2OC(=O)/C=C/c2ccc(O)c(O)c2)[C@H](O)[C@H](O)[C@H]1O [acteoside]
share of the chemotaxis index of the control strain CL2122 reached ([5]; 200 μg/ml): about 88%
Chemotaxis index ([5]; CL2355, 200 μg/ml, untreated 0.10 ± 0.04, control strain CL2122 0.50 ± 0.09): 0.45 ± 0.02 (p < 0.05)
PT50 value [6]: 32.8 ± 0.3 h

CC(NC(C)(C)C)C(=O)c1cccc(Cl)c1 (stereo not shown) [bupropion]
Fluorescence intensity [% of untreated group] [7]: 68.2 ± 7.7 % of untreated group
